How the values were obtained:
[1] = tested on: human CD3high, CD45dim, CD56+ cells; test: Human AVM-NKT cells in HuCD34-NCG mice; type: in vivo, mouse; conditions: oral HED 18-45 mg/kg; 24-48 hours later
Text: The HuCD34-NCG mouse from Charles River is a study-ready mouse model with a human-like immune system, created by adoptive transfer of CD34+ stem cells. HuCD34-NCG mice are an ideal in vivo platform to evaluate the effectiveness of compounds modulating the human immune system. The lack, or late onset, of graft-versus-host disease (GvHD) in humanized mice make them ideal for long-term studies.
NCG mice are humanized by adoptive transfer using human umbilical cord blood-derived CD34+ stem cells, following myeloablation treatment. NCG mice from 4 donors (n=2 per donor) are orally dosed with HED 18-45 mg/kg DSP. 24-48 hours later human CD3high, and/or human CD45dim, and/or human CD56+ cells can be observed to be about 0.2-3% of total splenocytes by flow cytometry.

AVM-NKT cells = test: Flow cytometry of osteoarthritis patients treated with dexamethasone; type: in vivo, human; conditions: 3-6 mg/kg; 48 hours post treatment; one of four patients
[2] = tested on: CD3high, CD45dim, CD49b+ cells; test: Venetoclax pre-treatment before high dose DSP in female NOD mice; type: in vivo, mouse; conditions: 48 hours after HED 30 mg/kg DSP alone
Method: Female NOD mice of 10 weeks of age are treated with 12.5 mg/kg up to 50 mg/kg venetoclax 6-18 hours before oral gavage of a HED 30 mg/kg DSP dose. […] CD3high, CD45dim, CD49b+ cells are reduced from—70 cells/microliter with DSP alone to—40 cells/microliter with 12.5 mg/kg venetoclax pretreatment, to—20 cells/microliter with 25 mg/kg venetoclax pretreatment, to—15 cells/microliter with 50 mg/kg venetoclax pretreatment. Venetoclax is a Bcl-2 inhibitor.

[3] = tested on: human CD3high, CD45dim, CD56+ cells; test: Human AVM-NKT cells in huNOG EXL mice; type: in vivo, mouse; conditions: oral HED 18-45 mg/kg; 24-48 hours later
Method: huNOG EXL from Taconic have an average of 54% of CD45 cells positive for human CD45. Six huNOG EXL humanized immune system mice from 3 donors (n=2 per donor) are orally dosed with HED 18-45 mg/kg DSP. 24-48 hours later human CD3high, and/or human CD45dim, and/or human CD56+ cells can be observed to be about 0.2-3% of total splenocytes by flow cytometry.

[4] = tested on: human CD3high, CD45dim, CD56+ cells; test: Human AVM-NKT cells in BRGSF humanized mice; type: in vivo, mouse; conditions: oral HED 18-45 mg/kg; 24-48 hours later
Method: BRGSF humanized mice on a Balb/c background from Genoway generated by transplanting human umbilical cord blood CD34+ stem cells into irradiated mice that lack mouse B and T lymphocytes and NK cells but have a functional mouse complement system are orally dosed with HED 18-45 mg/kg DSP. 24-48 hours later human CD3high, and/or human CD45dim, and/or human CD56+ cells can be observed to be about 0.2-3% of total splenocytes by flow cytometry.

dexamethasone sodium phosphate [DSP]
human CD3high, and/or CD45dim, and/or CD56+ cells as share of total splenocytes [1]: 0.2-3% | Cells corresponding to AVM-NKT cells (CD45 dim, CD56 very bright) in blood (AVM-NKT cells): identified | CD3high, CD45dim, CD49b+ cells mobilized into the blood [2]: 70 cells/microliter | human CD3high, and/or CD45dim, and/or CD56+ cells as share of total splenocytes [3]: 0.2-3% | human CD3high, and/or CD45dim, and/or CD56+ cells as share of total splenocytes [4]: 0.2-3%

Reference: patent US20230096897A1, “Lymphocyte Population and Methods for Producing Same” (AVM Biotechnology, LLC, priority 2020, published 2023)
